Columns and labels:
[1] = tested on: kidney inflammation, ED-1 reactivity (macrophage activation); assay: Acute kidney injury model (stab wound plus cautery), ED-1 immunohistochemistry; assay type: in vivo, Sprague-Dawley rat; conditions: rat kidney, 3% solution of EARA-16 or 1% solution of KS
Experimental: The anti-inflammatory effects of EARA-16 (SEQ ID NO: 89) and a RADA-kidney specific peptide conjugate (Ac-(RADA)3CVSVPQAL-CONH2; SEQ ID NO: 413; referred to as KS) were examined. Specifically, the effects of EARA-16 and KS on inflammation caused by burn damage were examined using an acute kidney injury model. Levels of inflammation were assayed through immuno-histochemical ED-1 reactivity (ED-1 serves as a marker of macrophage activation).
Adult Sprague-Dawley rats were anesthetized and their intraperitoneal cavities were opened under aseptic conditions. For each animal, the kidney was exposed and then subjected to a stab wound injury.
Cautery was then performed at the injury site to stop bleeding. After cauterization, the injury site was either left untreated and the animals were closed or the site was treated with a 3% solution of EARA-16 (SEQ ID NO: 89) or a 1% solution of KS (SEQ ID NO: 413). The animals were allowed to survive for up to 14 days. The animals were then sacrificed and their kidneys were harvested and sectioned. An ED-1 antibody was used to determine the level of inflammation and activation of macrophages in the kidney via immunohistochemistry (IHC). For each experimental condition, n=3 (max).
Animals receiving no injury, but in which saline was applied to the kidney in a similar location to that of the experimental animals, were used as controls (n=8).

[2] = tested on: olfactory bulb inflammation, GFAP (reactive astrocytes); assay: Olfactory bulb injury model (transection), GFAP immunohistochemistry; assay type: in vivo, Sprague-Dawley rat; conditions: rat olfactory bulb, days 2-14
Experimental: The anti-inflammatory effects of EARA-16 (SEQ ID NO: 89) and RADA-16 (SEQ ID NO: 1) were examined using an olfactory bulb injury model. Levels of inflammation were assayed through immunohistochemical staining for glial fibrillary acidic protein (GFAP) as an indicator of reactive astrocytes.
In brief, the olfactory bulbs of adult Sprague-Dawley rats were unilaterally transected and the cuts were then treated with either saline as a control, or one of RADA-16 (SEQ ID NO: 1) or EARA-16 (SEQ ID NO: 89) solutions (each used at 1% and 3%). The SAP materials were injected into the cuts post transection at the time of surgery. After 2, 7 or 14 days, the animals were sacrificed.
A more detailed protocol is as follows: adult Sprague-Dawley rats were anesthetized with a mixture of ketamine (80 mg/kg, i. p.) and xylazine (8 mg/kg, i. p.). The head was shaved and a thorough disinfection of the head surface was carried out with iodine 5% solution. The bilateral olfactory bulbs were exposed by drilling two burr holes (2 mm diameter, 8 mm anterior to the bregma) on either side at a distance of 2 mm from the midline of the frontal bone in the region overlying the olfactory bulbs. A cataract knife with a blunted end and one sharpened edge was used for surgery. The cut was performed on the middle of olfactory bulb. The blunted edge of the knife was inserted along the middle line of the olfactory bulb to prevent damage of the sagittal sinus, until the tip of the knife lightly touched the bottom of the brain without penetration of the dura. The knife was then moved laterally to transect the bulb until it reached the lateral edge of the hole. The knife was then rotated and pulled out to have a complete cut of the bulb at lateral side. This procedure was modified from the method described in several previous studies attempting to isolate the olfactory bulb from other parts of the brain (Ahrens & Freeman 2001; Allison 1953; Chaput 1983; Freeman 1968; Koliatsos et al 2004; Munirathinam et al 1997).
After performing the cut, one of the solutions was used to treat the injury site: either 10 μl saline (control group) or the EARA-16 (SEQ ID NO: 89) or RADA-16 (SEQ ID NO: 1) SAP (at a concentration of 1% and 3%) was injected evenly into the wound site using a self-constructed hydraulic pressure injection system without micro syringe. This technique was modified from similar methods as described by Bullier and others (Bullier et al 1980; Fish & Rhoades 1981; Kratskin et al 1997; Meyers & Snow 1981; Price et al 1977; Shipley 1982). Care was taken to control the speed of the injection of the saline or the SAP. After the injection, the wound was closed and the animals were placed in a warm place for recovery before they were brought back to their home cages. […]

[3] = tested on: liver inflammation, ED-1 reactivity (macrophage activation); assay: Pig liver injury model (punch biopsy), ED-1 immunohistochemistry; assay type: in vivo; conditions: 8 mm punch biopsy, day 7 post-treatment, compared to saline or cauterization controls
Experimental: (§1) The anti-inflammatory effects of EARA-16 (SEQ ID NO: 89) and RADA-16 (SEQ ID NO: 1) SAPs were examined using a liver injury model. Levels of inflammation were assayed through immuno-histochemical ED-1 reactivity (ED-1 serves as a marker of macrophage activation).
(§2) Pigs or adult Sprague-Dawley rats were anesthetized and their intraperitoneal cavities were opened under aseptic conditions. For each animal, the liver was exposed and then subjected to an 8 mm (pig) or 4 mm (rat) punch biopsy.
(§3) The punch sites were then cauterized or treated with acid (for pH control), saline, or RADA-16 (SEQ ID NO: 1) or EARA-16 (SEQ ID NO: 89) solutions. The animals were allowed to survive for up to 14 days. The animals were then sacrificed and their livers were harvested and sectioned. An ED-1 antibody was used to determine the level of inflammation and activation of macrophages in the liver via immunohistochemistry (IHC).

[4] = tested on: liver inflammation, ED-1 reactivity (macrophage activation); assay: Rat liver injury model (punch biopsy), ED-1 immunohistochemistry; assay type: in vivo, Sprague-Dawley rat; conditions: 4 mm punch biopsy, all time-points observed, compared to saline or acid controls
Experimental: as §1, §2, §3

| Substance | reduction in inflammation compared to cautery only (ED-1 IHC) ([1]; 7-day survival) [%] | reduction in inflammation compared to cautery only (ED-1 IHC) ([1]; 14-day survival) [%] | time course of reactive astrocyte activation / inflammation (GFAP) ([2]; 1% solution) | time course of reactive astrocyte activation / inflammation (GFAP) ([2]; 3% solution) | levels of inflammation in liver (ED-1 IHC) [3] | levels of inflammation in liver (ED-1 IHC) [4] |
| --- | --- | --- | --- | --- | --- | --- |
| EARAEARAEARAEARA [EARA-16, self-assembling peptide] | 80 | 66 | increased activation of reactive astrocytes on day 7 which subsequently reduced by day 14 | increasing inflammation levels, but at a much slower rate than the saline controls | markedly reduced the levels of inflammation | markedly reduced the levels of inflammation |
| Ac-(RADA)3CVSVPQAL-CONH2 (Ac-RADARADARADACVSVPQAL-NH2) [KS, RADA-kidney specific peptide conjugate] | 68 | 66 |  |  |  |  |
